The nature of data set [1]: Solubility limit of drug in PBS. The conditions noted are these: 25 °C, aqueous buffer. The source says: (§1) A significant parameter for the behavior of the disclosed drug delivery compositions is drug solubility in an aqueous environment and in hydrophobic environment, such as the soybean oil used in the examples described herein. Without wishing to be bound by a particular theory, it is possible that diffusion of the drug in the external medium (PBS) is a rate limiting step. Accordingly, solubility of the drug in this phase is crucial for modeling calculations of drug release. Solubility in the oil phase was estimated by preparing drug delivery compositions with different concentrations of drug, and observing the samples under a microscope.

Data set [2] in a line: Solubility limit of drug in oil phase of drug delivery composition (microscopy for visible drug particles).
Excerpt: as §1

The mark [3] stands for this setting: apparent wt %, soybean oil phase, estimated from visible drug particles.

Counter-ions that a name gives are not always drawn. Like-named read-outs stand apart in the source and are kept apart here. Where only a bound is given, the exact number is not on record here.

On to `C[C@@H]1C[C@H]2[C@@H]3CCC4=CC(=O)C=C[C@]4(C)[C@@]3(F)[C@@H](O)C[C@]2(C)[C@@]1(O)C(=O)COP(=O)(O)O` [Dexamethasone Phosphate], for which the solubility in data set [1] (PBS) is over 0.089 mg/mL. In data set [2], the “Solubility Limit in Oil Phase of Drug Delivery Composition” value (from here on “Solubility Limit in Oil Phase”) is recorded as under 0.1%. Take `C[C@@H]1C[C@H]2[C@@H]3CCC4=CC(=O)C=C[C@]4(C)[C@@]3(F)[C@@H](O)C[C@]2(C)[C@@]1(O)C(=O)CO` [Dexamethasone]: the “Solubility Limit in Oil Phase” value in data set [2] (setting [3]) is 1%-3%.

In data set [1] (PBS), `CC(C)(C)NC[C@H](O)COc1nsnc1N1CCOCC1` [Timolol Maleate] had a solubility of over 0.089 mg/mL. In addition, the “Solubility Limit in Oil Phase” value in data set [2] (setting [3]) is recorded as 0.1%-1%. Consider `CN[C@H](CC(C)C)C(=O)N[C@H]1C(=O)N[C@@H](CC(N)=O)C(=O)N[C@H]2C(=O)N[C@H]3C(=O)N[C@H](C(=O)N[C@H](C(=O)O)c4cc(O)cc(O)c4-c4cc3ccc4O)[C@H](O)c3ccc(c(Cl)c3)Oc3cc2cc(c3O[C@@H]2O[C@H](CO)[C@@H](O)[C@H](O)[C@H]2O[C@H]2C[C@](C)(N)[C@H](O)[C@H](C)O2)Oc2ccc(cc2Cl)[C@H]1O` [Vancomycin Hydrochloride], for which the solubility in data set [1] is over 0.089 mg/mL.

(Values after patent US11406594B2, “Oleogel compositions for retinal drug delivery” (University of Florida Research Foundation, Inc., priority 2017, dated 2022).)
